Results: patent US20260356856A1, “KRAS G12S AND G12C INHIBITORS” (MIRATI THERAPEUTICS, INC., priority 2023, published 2026)

Experiments:
[1] = target: T1, KRas-mediated phosphorylation of ERK in MKN1 cells (Homo sapiens, UniProt P01116); experiment: Inhibition of KRas-mediated phosphorylation of ERK (HTRF), MKN1 cells; assay type: cell-based; details: MKN1 cells (KRas WT); HTRF pERK; 3 h incubation
T1 construct: pERK HTRF read-out
Description: Inhibition of KRas Phosphorylation of ERK (HTRF) by Exemplary Compounds of Formula (Ia) or (Ib)
Cisbio HTRF Advanced pERK Assay Catalog #64AERPEH • Cells: MKN1, PSN1 • Procedure: • 1. Day 1: Seed 6,000 cells/well −25 μl/well in 384-well white solid bottom plate; RPM1_10% FBS. Incubate overnight at 37 °C/5% CO2. • 2.

[2] = target: T2, KRas-mediated phosphorylation of ERK in H358 cells (Homo sapiens, UniProt P01116, G12C); experiment: Inhibition of KRas-mediated phosphorylation of ERK (HTRF), H358 cells; assay type: cell-based; details: HTRF pERK, 3 h incubation
T2 construct: pERK HTRF read-out

[3] = target: T3, KRas G12C (Homo sapiens, UniProt P01116, G12C); experiment: KRas binding assay, TR-FRET displacement of Cy5 labelled tracer; details: 60-minute incubation at room temperature, 1% DMSO, pH 7.5
T3 construct: Biotinylated KRas (corresponding to amino acids 1-169, produced at Accelegan Inc.); biotin (biotinylated); purchased Accelegan Inc
Procedure, shortened: (§1)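 Assay buffer was HEPES (50 mM, pH 7.5) with MgCl2 (5 mM), DTT (1 mM) and Tween-20 (0.005%). Biotinylated KRas spanning residues 1-169 met tracer, terbium streptavidin and compound (1% DMSO, final) for 60 minutes at ambient temperature before reading. POC values were fitted for IC50.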

[4] = target: T4, KRas G12S (Homo sapiens, UniProt P01116, G12S); experiment: as above; details: 60-minute incubation at room temperature, 1% DMSO, pH 7.5
T4 construct: Biotinylated KRas (corresponding to amino acids 1-169, produced at Accelegan Inc.); biotin (biotinylated); purchased Accelegan Inc
Procedure, shortened: as §1

[5] = target: T5, KRas WT (Homo sapiens, UniProt P01116); experiment: as above; details: 60-minute incubation at room temperature, 1% DMSO, pH 7.5
T5 construct: Biotinylated KRas (corresponding to amino acids 1-169, produced at Accelegan Inc.); biotin (biotinylated); purchased Accelegan Inc
Procedure, shortened: as §1

[6] = target: T6, KRas-mediated phosphorylation of ERK in A549 cells (Homo sapiens, UniProt P01116, G12S); experiment: Inhibition of KRas-mediated phosphorylation of ERK (HTRF), A549 cells; assay type: cell-based; details: HTRF pERK, 3 h incubation
T6 construct: pERK HTRF read-out
T6 sequence (P01116 1-188 isoform P01116-2 G12S): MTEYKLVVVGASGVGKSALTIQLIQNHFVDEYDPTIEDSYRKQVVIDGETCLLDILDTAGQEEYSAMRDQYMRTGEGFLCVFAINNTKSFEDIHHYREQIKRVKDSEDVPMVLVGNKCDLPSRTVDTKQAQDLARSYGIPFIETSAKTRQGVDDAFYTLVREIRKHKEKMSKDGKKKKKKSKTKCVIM

T2 sequence (P01116 1-188 isoform P01116-2 G12C): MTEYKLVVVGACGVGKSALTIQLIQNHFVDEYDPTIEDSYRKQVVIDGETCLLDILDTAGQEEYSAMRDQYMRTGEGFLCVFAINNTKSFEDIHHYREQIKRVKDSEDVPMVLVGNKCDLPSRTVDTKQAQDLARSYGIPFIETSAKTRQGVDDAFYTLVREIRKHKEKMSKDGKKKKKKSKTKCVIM
T5 sequence (P01116 1-169 isoform P01116-2): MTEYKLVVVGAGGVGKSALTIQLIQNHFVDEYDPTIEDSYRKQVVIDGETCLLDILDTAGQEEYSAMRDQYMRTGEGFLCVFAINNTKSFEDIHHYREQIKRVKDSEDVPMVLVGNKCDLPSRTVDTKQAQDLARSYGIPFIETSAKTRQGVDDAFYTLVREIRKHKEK
T3 sequence (P01116 1-169 isoform P01116-2 G12C): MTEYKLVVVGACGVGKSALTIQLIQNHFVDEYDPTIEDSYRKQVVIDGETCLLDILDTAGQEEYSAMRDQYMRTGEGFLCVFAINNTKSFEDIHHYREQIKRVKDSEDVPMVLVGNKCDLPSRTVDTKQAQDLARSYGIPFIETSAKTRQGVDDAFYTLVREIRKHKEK
T4 sequence (P01116 1-169 isoform P01116-2 G12S): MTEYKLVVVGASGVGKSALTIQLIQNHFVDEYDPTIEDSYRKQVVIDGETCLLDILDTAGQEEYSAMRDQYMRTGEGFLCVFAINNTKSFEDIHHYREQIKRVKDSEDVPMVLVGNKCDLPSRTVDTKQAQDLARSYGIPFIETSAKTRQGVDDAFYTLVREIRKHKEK
T1 sequence (P01116 1-188 isoform P01116-2): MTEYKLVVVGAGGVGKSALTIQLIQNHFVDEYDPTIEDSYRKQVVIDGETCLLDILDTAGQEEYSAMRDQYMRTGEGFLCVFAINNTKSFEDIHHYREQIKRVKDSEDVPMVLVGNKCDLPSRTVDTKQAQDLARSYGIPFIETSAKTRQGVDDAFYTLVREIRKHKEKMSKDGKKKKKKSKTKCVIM

Row | IC50 [1] | IC50 [2] | IC50 [3] | IC50 [4] | IC50 [5] | IC50 [6] | SMILES
1 | 870 nM | 1290 nM | 82 nM | 44 nM | 184 nM | 185 nM | CCc1c(F)ccc2cc(O)cc(-c3ncc4c(N(C)C(C)CCC(=O)N(C)C(C)=O)nc(OC[C@@]56CCCN5C[C@H](F)C6)nc4c3F)c12 (stereo partly drawn) [Example 282, N-acetyl-4-((7-(8-ethyl-7-fluoro-3-hydroxynaphthalen-1-yl)-8-fluoro-2-(((2R,7aS)-2-fluorotetrahydro-1H-pyrrolizin-7a(5H)-yl)methoxy)pyrido[4,3-d]pyrimidin-4-yl)(methyl)amino)-N-methylpentanamide]
2 | 142 nM | 23 nM | < 2 nM | 2 nM | 4 nM | 1480 nM | CN(CCN(C)c1nc(OC[C@@]23CCCN2C[C@H](F)C3)nc2c(F)c(-c3ccc(F)c4sc(N)c(C#N)c34)c(Cl)cc12)C(=O)n1nccn1 (single isomer, unassigned) [Example 202]
3 | 514 nM | 635 nM | 224 nM | 407 nM | 193 nM | 7190 nM | CCc1c(F)ccc2cc(O)cc(-c3ncc4c(N5CCN(C(=O)n6ccc(C)n6)C(C(F)(F)F)C5)nc(OC[C@@]56CCCN5C[C@H](F)C6)nc4c3F)c12 (stereo partly drawn) [Example 127, (4-(7-(8-ethyl-7-fluoro-3-hydroxynaphthalen-1-yl)-8-fluoro-2-(((2R,7aS)-2-fluorotetrahydro-1H-pyrrolizin-7a(5H)-yl)methoxy)pyrido[4,3-d]pyrimidin-4-yl)-2-(trifluoromethyl)piperazin-1-yl)(3-methyl-1H-pyrazol-1-yl)methanone]
4 | 531 nM | 8 nM | < 2 nM | < 2 nM | 10 nM | 7 nM | Cc1ccn(C(=O)CCCNc2nc(OC[C@@]34CCCN3C[C@H](F)C4)nc3c(F)c(-c4ccc(F)c5sc(N)c(C#N)c45)c(Cl)cc23)n1 [Example 142, 2-amino-4-(6-chloro-8-fluoro-2-(((2R,7aS)-2-fluorotetrahydro-1H-pyrrolizin-7a(5H)-yl)methoxy)-4-((4-(3-methyl-1H-pyrazol-1-yl)-4-oxobutyl)amino)quinazolin-7-yl)-7-fluorobenzo[b]thiophene-3-carbonitrile]
5 | 159 nM | 159 nM | 14 nM | 15 nM | 23 nM | 67 nM | CCc1c(F)ccc2cc(O)cc(-c3ncc4c(NCCCC(=O)N(C)C(C)=O)nc(OC[C@@]56CCCN5C[C@H](F)C6)nc4c3F)c12 [Example 261, N-acetyl-4-((7-(8-ethyl-7-fluoro-3-hydroxynaphthalen-1-yl)-8-fluoro-2-(((2R,7aS)-2-fluorotetrahydro-1H-pyrrolizin-7a(5H)-yl)methoxy)pyrido[4,3-d]pyrimidin-4-yl)amino)-N-methylbutanamide]
6 | 7310 nM | 9590 nM | 10 nM | 20 nM | 525 nM | 96 nM | Cc1ccn(C(=O)CCCN(C)c2cc(O[C@@H](C)[C@@H]3CCCN3C)nc(-c3noc([C@@]4(C)CCCc5sc(N)c(C#N)c54)n3)n2)n1 [Example 322, (S)-2-amino-4-methyl-4-(3-(4-(methyl (4-(3-methyl-1H-pyrazol-1-yl)-4-oxobutyl)amino)-6-((S)-1-((S)-1-methylpyrrolidin-2-yl)ethoxy)pyrimidin-2-yl)-1,2,4-oxadiazol-5-yl)-4,5,6,7-tetrahydrobenzo[b]thiophene-3-carbonitrile]
7 | 1280 nM | 66 nM | 21 nM | 65 nM | 70 nM | 5440 nM | CCc1c(F)ccc2cc(O)cc(-c3ncc4c(N(C)CCNC(=O)n5nccn5)nc(OC[C@@]56CCCN5C[C@H](F)C6)nc4c3F)c12 [Example 251, N-(2-((7-(8-ethyl-7-fluoro-3-hydroxynaphthalen-1-yl)-8-fluoro-2-(((2R,7aS)-2-fluorotetrahydro-1H-pyrrolizin-7a(5H)-yl)methoxy)pyrido[4,3-d]pyrimidin-4-yl)(methyl)amino)ethyl)-2H-1,2,3-triazole-2-carboxamide]
8 | 24 nM | 106 nM | 11 nM | 15 nM | 6 nM | 237 nM | COC(=O)C1CCN(c2nc(OC[C@@]34CCCN3C[C@H](F)C4)nc3c(F)c(-c4ccc(F)c5sc(N)c(C#N)c45)c(Cl)cc23)CC1 [Example 286, Methyl 1-(7-(2-amino-3-cyano-7-fluorobenzo[b]thiophen-4-yl)-6-chloro-8-fluoro-2-(((2R,7aS)-2-fluorotetrahydro-1H-pyrrolizin-7a(5H)-yl)methoxy)quinazolin-4-yl)piperidine-4-carboxylate]
9 | 3330 nM | 7290 nM | 408 nM | 274 nM | 572 nM | 748 nM | CCc1c(F)ccc2cc(O)cc(-c3ncc4c(N5CCC(C(=O)n6cc(C(C)(C)C)cn6)CC5)nc(OC[C@@]56CCCN5C[C@H](F)C6)nc4c3F)c12 [Example 72, (4-(tert-butyl)-1H-pyrazol-1-yl)(1-(7-(8-ethyl-7-fluoro-3-hydroxynaphthalen-1-yl)-8-fluoro-2-(((2R,7aS)-2-fluorotetrahydro-1H-pyrrolizin-7a(5H)-yl)methoxy)pyrido[4,3-d]pyrimidin-4-yl)piperidin-4-yl)methanone]
10 | 441 nM | 232 nM | 26 nM | 4 nM | 67 nM | 27 nM | Cc1ccn(C(=O)C2C[C@@H]3CN(c4nc(OC[C@@]56CCCN5C[C@H](F)C6)nc5c(F)c(-c6ccc(F)c7sc(N)c(C#N)c67)c(Cl)cc45)C[C@@H]3C2)n1 (stereo partly drawn) [Example 180, 2-amino-4-(6-chloro-8-fluoro-2-(((2R,7aS)-2-fluorotetrahydro-1H-pyrrolizin-7a(5H)-yl)methoxy)-4-((3aR,6aS)-5-(3-methyl-1H-pyrazole-1-carbonyl)hexahydrocyclopenta[c]pyrrol-2 (1H)-yl)quinazolin-7-yl)-7-fluorobenzo[b]thiophene-3-carbonitrile]
11 | 50 nM | 90 nM | 5 nM | 28 nM | 7 nM | 116 nM | CCc1c(F)ccc2cc(O)cc(-c3ncc4c(N5CCCCCC(C(=O)n6ccc(C)n6)C5)nc(OC[C@@]56CCCN5C[C@H](F)C6)nc4c3F)c12 (stereo partly drawn) [Example 55, (1-(7-(8-ethyl-7-fluoro-3-hydroxynaphthalen-1-yl)-8-fluoro-2-(((2R,7aS)-2-fluorotetrahydro-1H-pyrrolizin-7a(5H)-yl)methoxy)pyrido[4,3-d]pyrimidin-4-yl)azocan-3-yl)(3-methyl-1H-pyrazol-1-yl)methanone]
12 | 4560 nM | 1360 nM | 159 nM | 87 nM | 161 nM | > 10000 nM | CCc1c(F)ccc2cc(O)cc(-c3ncc4c(N5CCOCC(C(=O)n6ccc(C)n6)C5)nc(OC[C@@]56CCCN5C[C@H](F)C6)nc4c3F)c12 (stereo partly drawn) [Example 77, (4-(7-(8-ethyl-7-fluoro-3-hydroxynaphthalen-1-yl)-8-fluoro-2-(((2R,7aS)-2-fluorotetrahydro-1H-pyrrolizin-7a(5H)-yl)methoxy)pyrido[4,3-d]pyrimidin-4-yl)-1,4-oxazepan-6-yl)(3-methyl-1H-pyrazol-1-yl)methanone]
13 | 230 nM | 17 nM | < 2 nM | 13 nM | 38 nM | 351 nM | CN(CCCC(=O)Oc1ccccc1)c1nc(OC[C@@]23CCCN2C[C@H](F)C3)nc2c(F)c(-c3ccc(F)c4sc(N)c(C#N)c34)c(Cl)cc12 [Example 204, phenyl 4-((7-(2-amino-3-cyano-7-fluorobenzo[b]thiophen-4-yl)-6-chloro-8-fluoro-2-(((2R,7aS)-2-fluorotetrahydro-1H-pyrrolizin-7a(5H)-yl)methoxy)quinazolin-4-yl)(methyl)amino)butanoate]
14 | 90 nM | 1250 nM | 128 nM | 146 nM | 25 nM | 3820 nM | CCc1c(F)ccc2cc(O)cc(-c3ncc4c(N5CCN(C(=O)n6ccc(C)n6)C6(CC6)C5)nc(OC[C@@]56CCCN5C[C@H](F)C6)nc4c3F)c12 (single isomer, unassigned) [Example 78]
15 | 340 nM | 494 nM | 30 nM | 40 nM | 58 nM | 745 nM | CCc1c(F)ccc2cc(O)cc(-c3ncc4c(N(C)CCC(=O)N(C)C(C)=O)nc(OC[C@@]56CCCN5C[C@H](F)C6)nc4c3F)c12 [Example 273, N-acetyl-3-((7-(8-ethyl-7-fluoro-3-hydroxynaphthalen-1-yl)-8-fluoro-2-(((2R,7aS)-2-fluorotetrahydro-1H-pyrrolizin-7a(5H)-yl)methoxy)pyrido[4,3-d]pyrimidin-4-yl)(methyl)amino)-N-methylpropanamide]
